This is an account of results in patent US6388071B2, “Alkynyl phenyl heteroaromatic glucokinase activators” (Hoffmann-La Roche Inc., priority 2000, dated 2002).

Structures are written as SMILES.

On to `C#Cc1ccc(C(CC2CCCC2)C(=O)Nc2nccs2)cc1` (stereo not drawn) [Example 1, 3-Cyclopentyl-2-(4-ethynyl-phenyl)-N-thiazol-2-yl-propionamide], for which the melting point (commonly the temperature, or range, at which the solid turns liquid) was 181 to 183 °C.
Next, `O=C(Nc1nccs1)C(CC1CCCC1)c1ccc(C#CC2(O)CCCCC2)cc1` (stereo not drawn) [Example 2, 3-Cyclopentyl-2-[4-(1-hydroxy-cyclohexylethynyl)-phenyl]-N-thiazol-2-yl-propionamide]: 172 to 173 °C; `COCC#Cc1ccc(C(CC2CCCC2)C(=O)Nc2nccs2)cc1` (stereo not drawn) [Example 3, 3-Cyclopentyl-2-[4-(3-methoxy-prop-1-ynyl)-phenyl]-N-thiazol-2-yl-propionamide]: 170 to 172 °C.
As for `CCC(C)(O)C#Cc1ccc(C(CC2CCCC2)C(=O)Nc2nccs2)cc1` (stereo not drawn) [Example 4, 3-Cyclopentyl-2-[4-(3-hydroxy-3-methyl-pent-1-ynyl)-phenyl]-N-thiazol-2-yl-propionamide], the figure is 172 to 174 °C.
As for `CC(O)CC#Cc1ccc(C(CC2CCCC2)C(=O)Nc2nccs2)cc1` (stereo not drawn) [Example 5, 3-Cyclopentyl-2-[4-(4-hydroxy-pent-1-ynyl)-phenyl]-N-thiazol-2-yl-propionamide], the figure is 162 to 163 °C; as for `O=C(Nc1nccs1)C(CC1CCCC1)c1ccc(C#CCO)cc1` (stereo not drawn) [Example 6, 3-Cyclopentyl-2-[4-(3-hydroxy-prop-1-ynyl)-phenyl]-N-thiazol-2-yl-propionamide], 220 to 222 °C; as for `CN(C)CC#Cc1ccc(C(CC2CCCC2)C(=O)Nc2nccs2)cc1` (stereo not drawn) [Example 7], 164 to 167 °C.
On to `O=C(Nc1nccs1)C(CC1CCCC1)c1ccc(C#Cc2ccccn2)cc1` (stereo not drawn) [Example 9, 3-Cyclopentyl-2-(4-pyridin-2-ylethynyl-phenyl)-N-thiazol-2-yl-propionamide], for which the melting point fell in the range of 185 to 187 °C.
As for `O=C(Nc1nccs1)C(CC1CCCC1)c1ccc(C#Cc2cncnc2)cc1` (stereo not drawn) [Example 10, 3-Cyclopentyl-2-(4-pyrimidin-5-ylethynyl-phenyl)-N-thiazol-2-yl-propionamide], the figure is 149 to 151 °C.
